Assay results taken from patent US8349553B2, “Jasmonate based assays for identifying compounds that selectively inhibit mitochondrial bound hexokinases” (Ramot at Tel Aviv University Ltd., priority 2007, dated 2013).
Entries after “also recorded” stand apart in the source; their conditions may differ.

Columns and labels:
hexokinase = test: Hexokinase activity, agent added directly to the coupled assay mixture; assay type: biochemical; settings: coupled pyruvate kinase/lactate dehydrogenase assay, 340 nm
[1] = tested on: mitochondrial fraction of mouse brain; test: Mitochondrial swelling assay, mouse brain; assay type: biochemical; settings: 1 mM
Procedure: (§1) Freshly isolated mitochondrial fraction was washed with extraction buffer to remove EDTA and resuspended in swelling buffer (Mannitol 220 mM, Sucrose 70 mM, Tris, pH 7.2, 150 mM, KH2PO4, pH 7.2, 0.2 mM; 0.2 mg in 100 μL) freshly supplemented with potassium succinate, pH 7.2, 5 mM. Every component was sodium-free. Optical density was monitored at the wave length of 540 nm for 2-5 minutes before the addition of the examined reagents, e.g. methyl jasmonate, and for additional 20 minutes afterwards.
(§2) In order to examine the consistency of the relationship between the ability of methyl jasmonate to detach bound hexokinase and mitochondrial damage, methyl jasmonate was tested in mouse brain in comparison to mouse liver. The comparison was performed due to known differences of mitochondrial hexokinase content between mouse brain vs. its liver. It is well established in the art that brain mitochondrial fraction is rich in bound hexokinase, while liver mitochondrial fraction is essentially devoid of it (Wilson, 1995). […] Mitochondrial fractions were incubated for either 10, 30 or 60 minutes at 37° C. The activity of unbound hexokinase was measured and compared to the activity of spontaneously (control) detached hexokinase. Consequently, the ability of methyl jasmonate to induce swelling in mitochondrial fraction isolated from mouse brain and liver was tested.

[2] = tested on: mitochondria-bound hexokinase (mitochondrial fraction from a CT-26 tumor); test: Hexokinase detachment assay, mitochondrial fraction of CT-26 tumor; assay type: biochemical, murine; settings: CT-26 tumor mitochondrial fraction; 30 minutes of incubation
Procedure: Mitochondrial fraction was prepared by mechanical lysis and differential centrifugation. All stages were performed on ice. Cells or extracted tissues were washed with PBS and disrupted by homogenization in extraction buffer (Sucrose 250 mM, HEPES-NaOH 10 mM, pH 7.2) freshly supplemented with 0.1 mM EDTA and Protease Inhibitors cocktail (Sigma). For each gram of cells or tissue, 4 volumes of extraction buffer were applied. The homogenate volume was doubled with the extraction buffer, and tissue and cell debris as well as nuclei were pelleted by centrifugation of 1,000 g for 10 minutes. The supernatant was further spun at 13,000 g for 10 minutes twice. Endoplasmic reticulum layer was removed. The pellet, designated as the mitochondrial fraction, was suspended in the appropriate buffer, depending on the assay for which the mitochondrial fraction was prepared. Mitochondrial fractions were used immediately or stored at −196° C.
To determine the amount of hexokinase detached from the mitochondrial fraction by different agents, mitochondria were incubated with the agent of interest and pelleted by centrifugation. Activity of hexokinase in the supernatant (i.e., activity of the detached hexokinase) was determined spectrophotometrically at 340 nm. The reaction couples the ADP formation by hexokinase, consuming the ADP for pyruvate formation by pyruvate kinase, and reducing the pyruvate with NADH by lactate dehydrogenase. Briefly, mitochondria were suspended in incubation buffer (HEPES pH 7.4 20 mM, Sucrose 0.25M, Glucose 10 mM, KCl5 mM, MgCl2 10 mM; 0.2 mg/test, 100 μL/test) and incubated as described below. […]
Methyl jasmonate perturbs mitochondria directly in a PTPC-dependent manner (Rotem, 2005). In order to determine whether methyl jasmonate is able to detach hexokinase from mitochondrial fraction isolated from CT-26 tumors, the activity of hexokinase in the supernatant of mitochondrial fraction treated for different time periods was measured. […] The activity of unbound hexokinase was measured and compared to the activity of spontaneously detached hexokinase (control).

purified rat brain HKI = molecular target: T1, purified rat brain HKI (Rattus norvegicus, UniProt P05708); test: Surface plasmon resonance analysis of jasmonate-HK interactions; assay type: binding; settings: analyte injected at varying concentrations (MJ 0.375-6 mM); 25° C.
T1 construct: from tissue; host or cells: rat brain mitochondria
T1 sequence (P05708 whole entry): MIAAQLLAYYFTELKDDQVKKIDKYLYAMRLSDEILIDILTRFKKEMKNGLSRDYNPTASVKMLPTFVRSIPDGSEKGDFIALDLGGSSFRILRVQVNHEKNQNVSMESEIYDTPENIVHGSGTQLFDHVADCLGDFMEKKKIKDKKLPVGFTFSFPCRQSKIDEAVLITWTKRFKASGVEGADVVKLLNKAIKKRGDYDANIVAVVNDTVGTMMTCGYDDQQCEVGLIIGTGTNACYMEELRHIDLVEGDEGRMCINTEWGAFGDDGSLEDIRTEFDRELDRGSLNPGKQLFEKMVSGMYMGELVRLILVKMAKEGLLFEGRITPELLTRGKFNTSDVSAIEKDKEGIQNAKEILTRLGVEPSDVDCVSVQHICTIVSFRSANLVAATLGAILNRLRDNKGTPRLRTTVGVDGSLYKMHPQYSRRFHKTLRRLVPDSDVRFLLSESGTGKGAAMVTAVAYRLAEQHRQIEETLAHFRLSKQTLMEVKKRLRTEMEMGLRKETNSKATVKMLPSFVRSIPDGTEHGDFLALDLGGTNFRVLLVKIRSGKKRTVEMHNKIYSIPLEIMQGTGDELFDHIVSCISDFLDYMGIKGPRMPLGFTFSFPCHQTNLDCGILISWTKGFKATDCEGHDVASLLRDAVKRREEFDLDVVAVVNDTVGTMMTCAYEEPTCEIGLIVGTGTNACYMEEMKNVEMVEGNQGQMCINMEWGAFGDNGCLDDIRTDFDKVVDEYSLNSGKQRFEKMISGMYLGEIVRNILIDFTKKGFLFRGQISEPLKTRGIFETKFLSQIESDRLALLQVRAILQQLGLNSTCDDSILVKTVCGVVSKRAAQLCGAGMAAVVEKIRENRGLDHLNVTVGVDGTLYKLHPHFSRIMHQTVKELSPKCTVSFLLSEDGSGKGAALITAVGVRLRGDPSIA
Procedure: Rat brain HK-I was purified as following, crude brain mitochondria containing tightly bound HK-I were incubated with 1.2 mM glucose-6-phosphate and 0.5 mM K-EDTA to release the enzyme into the soluble fraction. Further purification of HK-I was achieved by affinity chromatography on Cibacron Blue-agarose (Pharmacia). The purified enzyme was concentrated and washed in 0.5 mM K-EDTA, 10 mM glucose, 1 mM dithiothreitol and 10 mM K-Hepes, pH 7.8, using an Amicon device and a 50,000 Da molecular mass cut-off membrane (Spectrum; type C). The concentrated enzyme (up to 1 mg/ml; 30-60 units/mg) was frozen in liquid nitrogen and stored at −80° C. until use (Azoulay-Zohar, 2004).
Surface plasmon resonance (SPR) is an optical biosensor technique that measures molecular binding events at a metal surface by detecting changes in the local refractive index. SPR is the surface-sensitive technique ideal for studying interactions between immobilized biomolecules (ligands) and a solution-phase analyte. The biosensor response is directly proportional to the mass of the bound analyte. The advantage of SPR for investigation of small molecular weight analytes over conventional techniques such as fluorescence or enzyme-linked immunosorbent assay is detection of an analyte being label-free and direct, without the need for labeling of analyte or multistep detection protocols (sandwich assay). […]

[3] = Fingrut, 2002, 2005, Rotem; cited from earlier work
[4] = tested on: mitochondrial fraction of mouse liver; test: Mitochondrial swelling assay, mouse liver; assay type: biochemical; settings: 1 mM
Procedure: as §1, §2

[5] = tested on: CT26 cells transfected with pcDNA3-HKII or pcDNA3; settings: CT26; 3.75 μM; 3 hours exposure
Procedure: Cell death was determined by trypan blue exclusion. […] Alternatively, cytotoxicity was determined using hemacolor staining. Upon completion of a given experiment, cells were stained and the percentage of dead (detached) cells was determined spectrophotometrically.
CT26 cells were transfected with pcDNA3-HKII or pcDNA3, using FuGene HD transfection reagent (Roche, Basel, Switzerland), according to the manufacturer's instruction followed by selection using G418.
To examine the effect of hexokinase over-expression on methyl jasmonate action, CT26 cells were transfected with plasmids, pcDNA3-HKII or pcDNA3, encoding for hexokinase II over-expression and a control plasmid, respectively (Zaid, 2005). Cells were seeded in 96-well plates and allowed to adhere. Cells were exposed to methyl jasmonate for 60 minutes prior to ATP determination (FIG. […] 9B).

Question: Which results are given for `CC/C=C\C[C@H]1C(=O)CC[C@@H]1CC(=O)O` [jasmonic acid]?
Answer: influence on hexokinase activity when added directly to the assay mixture (hexokinase): neither methyl jasmonate nor jasmonic acid added directly to the assay mixture, influence hexokinase activity; mitochondrial swelling (optical density at 540 nm) [1]: to a marginal extent; detachment of hexokinase (activity of unbound hexokinase compared to control), dose dependence [2]: did not show considerable detachment of hexokinase from mitochondrial fraction; also recorded: less effective than methyl jasmonate at detaching hexokinase from mitochondrial fraction; binding to immobilized hexokinase (SPR) (purified rat brain HKI): did not bind hexokinase at all; cytotoxicity relative to methyl jasmonate [3]: lower cytotoxicity than methyl jasmonate; mitochondrial swelling (optical density at 540 nm) [4]: not in liver

Question: Which “cytotoxicity (hemacolor), hexokinase II over-expressing vs. control cells” value [5] does the source give for `CN[C@@H]1C[C@H]2O[C@@](C)([C@@H]1OC)n1c3ccccc3c3c4c(c5c6ccccc6n2c5c31)C(=O)NC4` [staurosporine] here?
Answer: Its value is “similarly decreased by hexokinase II over-expression”.
